# Reference: patent US5238921A, “Oligopeptide, angiotensin converting enzyme inhibitors, hypotensive agent, and method for treatment of hypertension” (Agency of Industrial Science and Technology, priority 1990, dated 1993)
# Non-standard residues stand in square brackets, D forms with d. Residues, ends and D or L forms follow the SMILES beside them.
# Target: T1, angiotensin converting enzyme (Oryctolagus cuniculus, UniProt P12822)
# T1 construct: the supernatant was further purified with hydroxyapatite to obtain an angiotensin converting enzyme solution; from tissue; host or cells: rabbit lung (acetone powder)
# T1 sequence (P12822 34-1310): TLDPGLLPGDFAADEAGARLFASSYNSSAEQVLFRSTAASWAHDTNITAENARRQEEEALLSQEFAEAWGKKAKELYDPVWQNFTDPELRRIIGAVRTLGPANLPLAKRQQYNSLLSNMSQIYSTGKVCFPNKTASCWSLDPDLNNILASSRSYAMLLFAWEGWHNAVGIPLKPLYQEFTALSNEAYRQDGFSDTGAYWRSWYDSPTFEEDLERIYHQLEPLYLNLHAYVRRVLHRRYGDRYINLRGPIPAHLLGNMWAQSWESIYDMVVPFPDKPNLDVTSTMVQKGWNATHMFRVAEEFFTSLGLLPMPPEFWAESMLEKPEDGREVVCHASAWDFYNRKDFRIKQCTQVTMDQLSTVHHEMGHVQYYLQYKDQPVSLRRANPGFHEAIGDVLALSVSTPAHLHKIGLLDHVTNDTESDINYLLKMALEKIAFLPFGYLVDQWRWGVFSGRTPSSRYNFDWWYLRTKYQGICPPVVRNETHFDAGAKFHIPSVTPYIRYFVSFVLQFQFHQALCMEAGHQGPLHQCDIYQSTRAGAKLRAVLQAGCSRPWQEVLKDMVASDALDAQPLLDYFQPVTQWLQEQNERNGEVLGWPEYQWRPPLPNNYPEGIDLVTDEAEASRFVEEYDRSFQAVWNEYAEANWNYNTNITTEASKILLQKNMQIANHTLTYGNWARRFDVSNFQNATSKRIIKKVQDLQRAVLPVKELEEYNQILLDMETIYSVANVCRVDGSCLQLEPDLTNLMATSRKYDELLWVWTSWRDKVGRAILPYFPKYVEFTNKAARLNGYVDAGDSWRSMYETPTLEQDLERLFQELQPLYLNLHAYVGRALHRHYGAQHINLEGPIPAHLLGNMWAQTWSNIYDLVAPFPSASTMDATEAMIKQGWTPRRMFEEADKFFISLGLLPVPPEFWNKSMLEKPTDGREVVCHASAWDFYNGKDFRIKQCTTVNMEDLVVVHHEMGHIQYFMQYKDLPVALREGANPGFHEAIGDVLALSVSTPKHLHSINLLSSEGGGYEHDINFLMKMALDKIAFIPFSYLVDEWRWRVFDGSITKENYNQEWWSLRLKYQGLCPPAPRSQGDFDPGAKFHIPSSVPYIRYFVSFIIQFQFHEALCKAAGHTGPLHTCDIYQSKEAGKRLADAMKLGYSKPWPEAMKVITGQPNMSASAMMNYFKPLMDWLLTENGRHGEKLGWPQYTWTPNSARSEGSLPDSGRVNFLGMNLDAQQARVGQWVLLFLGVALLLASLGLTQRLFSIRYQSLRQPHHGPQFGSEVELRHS
# Experiment: ACE inhibition activity (hippuroylhistidylleucine substrate, hippuric acid absorbance at 228 nm)
# Assay type: biochemical, rabbit
# Conditions: concentration at which the inhibition rate (E2) was found; not 50%
# Description: The ACE inhibition activity of the thus obtained present oligopeptides was measured as follows. Namely, first, 5 g of rabbit lung acetone powder was dissolved in 50 ml of 0.1M sodium borate buffer (pH 8.3), the solution was centrifuged under the conditions of 40,000 G for 40 minutes, and the supernatant was further purified with hydroxyapatite to obtain an angiotensin converting enzyme solution having an enzyme activity of 1 unit/mg protein.
# 0.03 ml portions of aqueous solutions containing in various concentrations any one of the present oligopeptides was placed in test tubes, 0.25 ml portions of hippuroylhistidylleucine (final concentration 5 mM; containing 300 mM NaCl) were added thereto, 0.1 ml portions of the above angiotensin converting enzyme solution were added, and reactions were carried out at 37° C. for 30 minutes.
# Plural of such an experiment were conducted and the inhibition rate was calculated by the following equation: [formula]
row,Concentration giving the inhibition rate [µM],Compound
1,3.4,"CC(C)C[C@H](N)C(=O)N[C@H](C(=O)N1CCC[C@H]1C(=O)O)[C@@H](C)O [L--Leu--L--Thr--L--Pro, L-Leu-L-Thr-L-Pro] (H-Leu-Thr-Pro-OH)"
2,182,"CC(C)C[C@H](N)C(=O)N[C@@H](CC(=O)O)C(=O)N1CCC[C@H]1C(=O)O [L--Leu--L--Asp--L--Pro, L-Leu-L-Asp-L-Pro] (H-Leu-Asp-Pro-OH)"
3,24,"CC(C)C[C@H](N)C(=O)N[C@@H](CCC(=O)O)C(=O)N1CCC[C@H]1C(=O)O [L--Leu--L--Glu--L--Pro, L-Leu-L-Glu-L-Pro] (H-Leu-Glu-Pro-OH)"
4,45,"CC(C)C[C@@H](N)C(=O)N[C@@H](CCCNC(=N)N)C(=O)N1CCC[C@H]1C(=O)O [D--Leu--L--Arg--L--Pro, D-Leu-L-Arg-L-Pro] (H-[dL]-Arg-Pro-OH)"

# The remaining lines, values behind:
row,Compound,Concentration giving the inhibition rate [µM]
1,"CC(C)C[C@H](N)C(=O)NCC(=O)N1CCC[C@H]1C(=O)O [L--Leu--Gly--L--Pro, L-Leu-Gly-L-Pro] (H-Leu-Gly-Pro-OH)",60
2,"CC(C)C[C@H](N)C(=O)N[C@@H](Cc1ccc(O)cc1)C(=O)N1CCC[C@H]1C(=O)O [L--Leu--L--Tyr--L--Pro, L-Leu-L-Tyr-L-Pro] (H-Leu-Tyr-Pro-OH)",12

# Same assay, conditions: line prints 50% inhibition rate instead of the word IC50; read-out: Concentration giving the inhibition rate (50%)
row,IC50 [µM],Compound
1,80,"CC(C)C[C@H](N)C(=O)N[C@@H](Cc1c[nH]cn1)C(=O)N1CCC[C@H]1C(=O)O [L--Leu--L--His--L--Pro, L-Leu-L-His-L-Pro] (H-Leu-His-Pro-OH)"
2,1.4,"CC(C)C[C@H](N)C(=O)N[C@@H](C)C(=O)N1CCC[C@H]1C(=O)O [L--Leu--L--Ala--L--Pro, L-Leu-L-Ala-L-Pro] (H-Leu-Ala-Pro-OH)"
3,0.6,"CC(C)C[C@H](N)C(=O)N[C@@H](CCCCN)C(=O)N1CCC[C@H]1C(=O)O [L--Leu--L--Lys--L--Pro, L-Leu-L-Lys-L-Pro] (H-Leu-Lys-Pro-OH)"

# Same assay, conditions: rabbit lung ACE, 5 mM hippuroylhistidylleucine, 37° C. 30 minutes; read-out: IC50
row,IC50 [µM],Compound
1,1.7,"CC(C)C[C@H](N)C(=O)N[C@@H](CO)C(=O)N1CCC[C@H]1C(=O)O [L--Leu--L--Ser--L--Pro, L-Leu-L-Ser-L-Pro] (H-Leu-Ser-Pro-OH)"
2,0.27,"CC(C)C[C@H](N)C(=O)N[C@@H](CCCN=C(N)N)C(=O)N1CCC[C@H]1C(=O)O [L--Leu--L--Arg--L--Pro, L-Leu-L-Arg-L-Pro] (H-Leu-Arg-Pro-OH)"
3,57,"CC(C)C[C@H](NC(=O)[C@@H](N)CC(C)C)C(=O)N1CCC[C@H]1C(=O)O [L--Leu--L--Leu--L--Pro, L-Leu-L-Leu-L-Pro] (H-Leu-Leu-Pro-OH)"
4,1.9,"CC(C)C[C@H](N)C(=O)N[C@@H](CCC(N)=O)C(=O)N1CCC[C@H]1C(=O)O [L--Leu--L--Gln--L-- Pro, L-Leu-L-Gln-L-Pro] (H-Leu-Gln-Pro-OH)"
5,35,"CC(C)C[C@H](N)C(=O)N[C@@H](CC(N)=O)C(=O)N1CCC[C@H]1C(=O)O [L--Leu--L--Asn--L--Pro, L-Leu-L-Asn-L-Pro] (H-Leu-Asn-Pro-OH)"

# More lines, now with the values behind:
row,Compound,IC50 [µM]
1,"CC[C@H](C)[C@H](N)C(=O)N[C@@H](CCCNC(=N)N)C(=O)N[C@@H](C)C(=O)O [L--Ile--L--Arg--L--Ala, L-Ile-L-Arg-L-Ala] (H-Ile-Arg-Ala-OH)",6.4
2,"N[C@@H](Cc1ccccc1)C(=O)N[C@@H](Cc1ccc(O)cc1)C(=O)O [L--Phe--L--Tyr, L-Phe-L-Tyr] (H-Phe-Tyr-OH)",25
3,"CC(C)[C@H](N)C(=O)N[C@@H](C)C(=O)N[C@@H](Cc1ccc(O)cc1)C(=O)O [L--Val--L--Ala--L--Tyr, L-Val-L-Ala-L-Tyr] (H-Val-Ala-Tyr-OH)",16
4,"CC[C@H](C)[C@H](N)C(=O)N[C@@H](CCCNC(=N)N)C(=O)N[C@@H](C)C(=O)N[C@@H](CCC(N)=O)C(=O)N[C@@H](CCC(N)=O)C(=O)O [L--Ile--Arg--L--Ala--L--Gln--L--Gln, L-Ile-L-Arg-L-Ala-L-Gln-L-Gln] (H-IRAQQ-OH)",160
5,"CC(C)C[C@H](NC(=O)[C@@H](N)Cc1ccccc1)C(=O)N1CCC[C@H]1C(=O)O [L--Phe--L--Leu--L--Pro, L-Phe-L-Leu-L-Pro] (H-Phe-Leu-Pro-OH)",210
6,"CC(C)C[C@H](N)C(=O)N[C@@H](CCC(N)=O)C(=O)N[C@@H](CCC(N)=O)C(=O)O [L--Leu--L--Gln--L--Gln, L-Leu-L-Gln-L-Gln] (H-Leu-Gln-Gln-OH)",100
7,"CC(C)C[C@H](N)C(=O)N[C@@H](C)C(=O)N[C@@H](C)C(=O)O [L--Leu--L--Ala--L--Ala, L-Leu-L-Ala-L-Ala] (H-Leu-Ala-Ala-OH)",13
8,"CC(C)[C@H](N)C(=O)N[C@@H](C)C(=O)N[C@@H](C)C(=O)O [L--Val--L--Ala--L--Ala, L-Val-L-Ala-L-Ala] (H-Val-Ala-Ala-OH)",13
9,"CC(C)[C@H](N)C(=O)N[C@@H](CO)C(=O)N1CCC[C@H]1C(=O)O [L--Val--L--Ser--Ser--L--Pro, L-Val-L-Ser-L-Pro] (H-Val-Ser-Pro-OH; N-terminus and C-terminus assumed)",10

# System: spontaneous hypertensive rats (SHR)
# Experiment: Hypotensive activity in spontaneous hypertensive rats (Tail-Cuff method)
# Assay type: in vivo, rat
# Conditions: 120 mg/kg intraperitoneally, maximum blood pressure before minus after administration ± S.E., p < 0.01 against saline control
# Description: 10-week old spontaneous hypertensive rats (SHR) (produced BY Nihon Rat Co., Ltd.,.male., weight 240 to 280 g, 4 to 6 animals per 1 group) were used as test animals. L-Leu-L-Arg-L-Pro obtained as in Example 12 was dissolved in physiological saline and 120 mg in terms of the effective ingredient of the solution was intraperitoneally administered per kg of animal. As control physiological saline was intraperitoneally administered. Blood pressure was measured before the administration and at regular intervals of time after the administration by the Tail-Cuff method using a bloodless sphygmomanometer for rats and mice TK-350 (produced by Unicom Co., Ltd.)
# The results were shown in Table 2 by (Maximum blood pressure value before the administration-Maximum blood pressure value after the administration) ± S.E.
row,Compound,Lowering of blood pressure (mm Hg) 5 hours later [mm Hg]
1,"CC(C)C[C@H](N)C(=O)N[C@@H](CCCNC(=N)N)C(=O)N1CCC[C@H]1C(=O)O [L--Leu--L--Arg--L--Pro, L-Leu-L-Arg-L-Pro] (H-Leu-Arg-Pro-OH)",14 ± 5
